# Data: ChEMBL document CHEMBL4422618, “Translational impact of novel widely pharmacological characterized mofezolac-derived COX-1 inhibitors combined with bortezomib on human multiple myeloma cell lines viability” (Eur J Med Chem, 2019)
# Calls of active or inactive are those of the source. No cut-off for these calls is given here.
# Tests used:
# [1] = biological target: T1, Prostaglandin G/H synthase 1 (Ovis aries, UniProt P05979); experiment: Inhibition of ovine COX1 using arachidonic acid as substrate by colorimetric assay
# T1 sequence (P05979 whole entry): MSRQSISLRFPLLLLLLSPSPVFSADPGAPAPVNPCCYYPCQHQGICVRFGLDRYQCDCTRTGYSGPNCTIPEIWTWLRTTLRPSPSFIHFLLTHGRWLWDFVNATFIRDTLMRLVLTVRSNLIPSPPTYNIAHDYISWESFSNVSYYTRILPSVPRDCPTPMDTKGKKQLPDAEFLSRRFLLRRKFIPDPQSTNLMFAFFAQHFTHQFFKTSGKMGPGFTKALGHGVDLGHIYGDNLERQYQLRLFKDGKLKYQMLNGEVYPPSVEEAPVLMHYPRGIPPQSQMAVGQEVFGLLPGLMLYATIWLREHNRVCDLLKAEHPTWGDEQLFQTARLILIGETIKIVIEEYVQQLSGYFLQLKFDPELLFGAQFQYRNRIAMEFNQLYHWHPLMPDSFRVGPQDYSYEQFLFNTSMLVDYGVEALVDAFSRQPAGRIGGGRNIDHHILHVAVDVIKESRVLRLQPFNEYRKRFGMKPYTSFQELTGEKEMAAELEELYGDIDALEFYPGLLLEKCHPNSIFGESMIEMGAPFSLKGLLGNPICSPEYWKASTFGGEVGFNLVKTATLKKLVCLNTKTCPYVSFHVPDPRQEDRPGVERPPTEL
# [2] = biological target: T2, Prostaglandin G/H synthase 1 (Ovis aries) (UniProt P05979); experiment: Inhibition of ovine COX1 at 50 uM using arachidonic acid as substrate by colorimetric assay relative to control
# T2 sequence (whole entry): T1 sequence (P05979 whole entry)
# Platelet = experiment: Antiplatelet activity in human platelet rich plasma assessed as inhibition of arachidonic acid-induced platelet aggregation preincubated for 2 mins followed by arachidonic acid addition by turbidimetric method; type: functional, cell-based
# Plasma = experiment: Anticoagulant activity in human platelet poor plasma assessed as activated partial thromboplastin time at 100 uM incubated for 15 mins at room temperature and subsequent incubation for 2 mins at 37 degreeC followed by cephalin addition and measured after 2 mins for every secs in presence of CaCl2; type: functional
# [3] = Hemolytic activity in erythrocytes (unknown origin) at 100 uM after 3 hrs by spectrophotometric analysis; type: ADME, cell-based, Erythrocyte; conditions: read-out: Activity
# [4] = Genotoxicity in Escherichia coli PQ35 at 500 uM after overnight incubation by SOS chromotest; type: toxicity
# [5] = Genotoxicity in Escherichia coli PQ37 at 500 uM after overnight incubation by SOS chromotest; type: toxicity
# NCI-H929 [6] = experiment: Cytotoxicity against human NCI-H929 cells assessed as reduction in cell viability at 42 nM after 48 hrs by CCK8 assay; type: functional, cell-based
# RPMI-8226 [7] = experiment: Cytotoxicity against human RPMI8226 cells assessed as reduction in cell viability at 1.7 uM after 48 hrs by CCK8 assay relative to control; type: functional
# NCI-H929 [8] = experiment: Potentiation of bortezomib-induced cytotoxicity against human NCI-H929 cells assessed as reduction in cell viability at 42 nM after 48 hrs in presence of bortezomib by CCK8 assay; type: functional, cell-based
# RPMI-8226 [9] = experiment: Potentiation of bortezomib-induced cytotoxicity against human RPMI8226 cells assessed as reduction in cell viability at 42 nM after 48 hrs in presence of bortezomib by CCK8 assay; type: functional
# NCI-H929 [10] = experiment: Cell cycle arrest in human NCI-H929 cells assessed as accumulation at G0/G1 phase at 42 nM in presence of bortezomib after 48 hrs by propidium iodide/RNase staining based flow cytometric method relative to bortezomib alone; type: functional
# NCI-H929 [11] = experiment: Cell cycle arrest in human NCI-H929 cells assessed as accumulation at S phase at 42 nM in presence of bortezomib after 48 hrs by propidium iodide/RNase staining based flow cytometric method relative to bortezomib alone; type: functional
# RPMI-8226 [12] = experiment: Cell cycle arrest in human RPMI8226 cells assessed as accumulation at G0/G1 phase at 42 nM after 48 hrs by propidium iodide/RNase staining based flow cytometric method; type: functional
# RPMI-8226 [13] = experiment: Cell cycle arrest in human RPMI8226 cells assessed as accumulation at S phase at 42 nM after 48 hrs by propidium iodide/RNase staining based flow cytometric method; type: functional
# NCI-H929 [14] = experiment: Induction of apoptosis in human NCI-H929 cells assessed as late apoptotic cells at 42 nM after 48 hrs by Annexin-V/propidium iodide staining based flow cytometric method (reference value: 0.23%); type: functional
# NCI-H929 [15] = experiment: Induction of apoptosis in human NCI-H929 cells assessed as viable cells at 42 nM after 48 hrs by Annexin-V/propidium iodide staining based flow cytometric method (reference value: 82.6%); type: functional; conditions: NCI-H929, 48 h, read-out: Activity
# NCI-H929 [16] = experiment: Induction of apoptosis in human NCI-H929 cells assessed as early apoptotic cells at 42 nM after 48 hrs in presence of bortezomib by Annexin-V/propidium iodide staining based flow cytometric method (reference value: 17.1%); type: functional
# NCI-H929 [17] = experiment: Induction of apoptosis in human NCI-H929 cells assessed as late apoptotic cells at 42 nM after 48 hrs in presence of bortezomib by Annexin-V/propidium iodide staining based flow cytometric method (reference value: 0.23%); type: functional
# NCI-H929 [18] = experiment: Induction of apoptosis in human NCI-H929 cells assessed as necrotic cells at 42 nM after 48 hrs in presence of bortezomib by Annexin-V/propidium iodide staining based flow cytometric method (reference value: 0.0034%); type: functional
# RPMI-8226 [19] = experiment: Induction of apoptosis in human RPMI8226 cells assessed as early apoptotic cells at 42 nM after 48 hrs in presence of bortezomib by Annexin-V/propidium iodide staining based flow cytometric method (reference value: 1.05%); type: functional
# RPMI-8226 [20] = experiment: Induction of apoptosis in human RPMI8226 cells assessed as late apoptotic cells at 42 nM after 48 hrs in presence of bortezomib by Annexin-V/propidium iodide staining based flow cytometric method (reference value: 0.21%); type: functional
# RPMI-8226 [21] = experiment: Induction of apoptosis in human RPMI8226 cells assessed as necrotic cells at 42 nM after 48 hrs in presence of bortezomib by Annexin-V/propidium iodide staining based flow cytometric method (reference value: 0.090%); type: functional
# RPMI-8226 [22] = experiment: Induction of apoptosis in human RPMI8226 cells assessed as viable cells at 42 nM after 48 hrs in presence of bortezomib by Annexin-V/propidium iodide staining based flow cytometric method (reference value: 98.7%); type: functional; conditions: RPMI-8226, 48 h, read-out: Activity
# RPMI-8226 [23] = experiment: Cell cycle arrest in human RPMI8226 cells assessed as accumulation at G0/G1 phase at 42 nM in presence of bortezomib after 48 hrs by propidium iodide/RNase staining based flow cytometric method relative to bortezomib; type: functional
# RPMI-8226 [24] = experiment: Cell cycle arrest in human RPMI8226 cells assessed as accumulation at S phase at 42 nM in presence of bortezomib after 48 hrs by propidium iodide/RNase staining based flow cytometric method relative to bortezomib; type: functional
# RPMI-8226 [25] = experiment: Cell cycle arrest in human RPMI8226 cells assessed as reduction in accumulation at G2/M phase at 42 nM in presence of bortezomib after 48 hrs by propidium iodide/RNase staining based flow cytometric method relative to bortezomib; type: functional
smiles,measurement,setting,value
C=Cc1onc(-c2ccc(OC)cc2)c1-c1ccc(OC)cc1,IC50,[1],42 nM
same,inhibition,[2],100%
same,IC50,Platelet,630 nM
same,APTT,Plasma,51.2 s
same,"hemolysis at 3 h, 100 µM",[3],0%
same,Activity,[4],Non-Toxic
same,Activity,[5],Non-Toxic
same,Activity,NCI-H929 [6],inactive
same,Activity,RPMI-8226 [7],4%
same,Activity,NCI-H929 [8],inactive
same,Activity,RPMI-8226 [9],66%
same,Activity,NCI-H929 [10],15%
same,Activity,NCI-H929 [11],15%
same,Activity,RPMI-8226 [12],inactive
same,Activity,RPMI-8226 [13],inactive
same,Activity,NCI-H929 [14],0.11%
same,viability at 0.042 µM,NCI-H929 [15],83%
same,Activity,NCI-H929 [16],60.6%
same,Activity,NCI-H929 [17],0.22%
same,Activity,NCI-H929 [18],0%
same,Activity,RPMI-8226 [19],9.68%
same,Activity,RPMI-8226 [20],0.37%
same,Activity,RPMI-8226 [21],0.01%
same,viability at 0.042 µM,RPMI-8226 [22],89.9%
same,Activity,RPMI-8226 [23],Active
same,Activity,RPMI-8226 [24],Active
same,Activity,RPMI-8226 [25],Active
